In assay [1] the target is CA II (Homo sapiens, UniProt P00918). Nature of the assay: CA II inhibition. Format: biochemical. Particulars: read-out: IC(50), CA II inhibition. How it is done:
CA II inhabition was measured using the protocol described by Pocker, Y.'Stone, J. Biochemistry 1967, 6, 668.

In assay [2] the test system is SCG neurons. Nature of the assay: cells. The note with it: for pIC50: Rattus norvegicus, Neuron, read-out: IC(50), protection of SCG neurons from Taxol killing; for inhibition of Taxol™ induced killing of SCGs: concentrations as high as 50 μM. The class given is cell-based, Sprague Dawley rats. Here is the method:
Taxol™ is regularly used in breast cancer chemotherapy. In cancer cells Taxol™ binds to the cyto-skeletal protein tubulin, thereby inhibiting normal microtubular assembly and inducing cellular apoptosis. Despite its potency as an anti-tumour agent, Taxol™ is also toxic to neurons, inducing dose limiting peripheral neuropathies. The addition of Taxol™ (100 ng/mL) to cultured SCG neurons induces the degradation or loss of upwards of 80% of the neurons.
FIG. 1 illustrates the protection provided by compound 1 (referred to here as AEG3482) against Taxol™ induced killing. PI Sprague Dawley rat SCG neurons were cultured and incubated with NGF (50 ng/mL) for 5 days.

[3] abbreviates: Taxol™ (50 ng/mL), viability 48 hours later, MTS.

42 molecules from patent publication US7772260B2, “Imidazo[2,1-b]-1,3,4-thiadiazole sulfonamides” (Aegera Therapeutics Inc., priority 2001, dated 2010) can be followed below.

SMILES strings stand for the structures. pIC50: −log10 of the molar value. Where a name gives a salt, the structure may show the parent alone. Read-outs that look alike come from different tables or passages of the source. Where only a bound is given, the exact number is not on record here.

`COc1ccc(OC)c(-c2cn3nc(S(N)(=O)=O)sc3n2)c1` [Compound 18, 6-(2,5-Dimethoxyphenyl)imidazo[2,1-b]-1,3,4-thiadiazole-2-sulfonamide]: the pIC50 in assay [1] was 6.47; in assay [2] (setting [3]), 4.70.

For `CCCCN(CCCC)S(=O)(=O)c1nn2cc(-c3cccc(OC)c3)nc2s1` [Compound 142, 6-(3-Methoxyphenyl)imidazo[2,1-b]-1,3,4-thiadiazole-2-N,N-dibutylsulfonamide], the pIC50 is 4.22 in assay [1] and below 4.52 in assay [2] (setting [3]). The like results for `CC(C)(C)c1ccc(-c2cn3nc(S(N)(=O)=O)sc3n2)cc1` [Compound 49, 6-(4-tert-butylphenyl)imidazo[2,1-b]-1,3,4-thiadiazole-2-sulfonamide] were, in that order, 6.33 and 5.30. Turning to `NS(=O)(=O)c1nn2cc(-c3cccc(Br)c3)nc2s1` [Compound 13, 6-(3-bromophenyl)imidazo[2,1-b]-1,3,4-thiadiazole-2-sulfonamide], the pIC50 in assay [1] was 5.39; in assay [2] (setting [3]), 5.15. Regarding `COc1ccccc1-c1cn2nc(S(N)(=O)=O)sc2n1` [Compound 15, 6-(2-Methoxyphenyl)imidazo[2,1-b]-1,3,4-thiadiazole-2-sulfonamide], the figures for the pIC50 in assay [1] and in assay [2] (setting [3]) were 6.82 and 5.00, respectively.

Regarding `NS(=O)(=O)c1nn2cc(-c3ccc(O)c(O)c3)nc2s1` [Compound 22], the results for the pIC50 in assay [1] and in assay [2] (setting [3]) were 6.82 and 4.60, respectively. For the molecule `NS(=O)(=O)c1nn2cc(-c3ccc(C(=O)O)cc3)nc2s1` [Compound 39], the pIC50 in assay [1] is 6.81.

Take `NS(=O)(=O)c1nn2cc(-c3ccc(Cl)c([N+](=O)[O-])c3)nc2s1` [Compound 38, 6-(3-nitro-4-chlorophenyl)imidazo[2,1-b]-1,3,4-thiadiazole-2-sulfonamide]: the pIC50 in assay [1] is 6.24; in assay [2] (setting [3]), 5.52. For `CC(C)(C)c1cc(-c2cn3nc(S(N)(=O)=O)sc3n2)c2c(c1)C(C)(C)CC2` [Compound 50], the figures for the pIC50 in assay [1] and in assay [2] (setting [3]) were 6.03 and 5.15, respectively. Take `COc1ccc(-c2cn3nc(S(N)(=O)=O)sc3n2)cc1` [Compound 17, 6-(4-Methoxyphenyl)imidazo[2,1-b]-1,3,4-thiadiazole-2-sulfonamide]: the results for the pIC50 in assay [1] and in assay [2] (setting [3]) were 6.75 and 5.52, respectively.

Consider `COc1cccc(-c2cn3nc(S(N)(=O)=O)sc3n2)c1` [Compound 16, 6-(3-Methoxyphenyl)imidazo[2,1-b]-1,3,4-thiadiazole-2-sulfonamide], for which the values for the pIC50 in assay [1] and in assay [2] (setting [3]) were 6.82 and 5.30, respectively. Consider `NS(=O)(=O)c1nn2cc(-c3cccc(OC(F)(F)F)c3)nc2s1` [Compound 24, 6-(3-trifloromethoxyphenyl)imidazo[2,1-b]-1,3,4-thiadiazole-2-sulfonamide], for which the pIC50 was 6.21 in assay [1] and 5.15 in assay [2] (setting [3]). On to `NS(=O)(=O)c1nn2cc(-c3ccc4c(c3)OCO4)nc2s1` [Compound 20, 6-(1,3-Benzodioxol-5-yl)imidazo[2,1-b]-1,3,4-thiadiazole-2-sulfonamide], for which the pIC50 in assay [1] is 6.39; in assay [2] (setting [3]), 4.82. As for `CN(C)S(=O)(=O)c1nn2cc(-c3ccccc3)nc2s1` [Compound 139, 6-Phenyl-imidazo[2,1-b]-1,3,4-thiadiazole-2-N,N-dimethylsulfonamide], the pIC50 is 4.95 in assay [1] and 5.00 in assay [2] (setting [3]). Turning to `NS(=O)(=O)c1nn2cc(-c3ccccn3)nc2s1` [Compound 105, 6-(2-Pyridyl)imidazo[2,1-b]-1,3,4-thiadiazole-2-sulfonamide], the pIC50 is 6.82 in assay [1] and 5.15 in assay [2] (setting [3]). For `NS(=O)(=O)c1nn2cc(-c3c(F)c(F)c(F)c(F)c3F)nc2s1` [Compound 6, 6-(2,3,4,5,6-Pentafluorophenyl)imidazo[2,1-b]-1,3,4-thiadiazole-2-sulfonamide], the figures for the pIC50 in assay [1] and in assay [2] (setting [3]) were 6.79 and 5.52, respectively. Take `CCCCCc1ccc(-c2cn3nc(S(N)(=O)=O)sc3n2)cc1` [Compound 46, 6-(4-Pentylphenyl)imidazo[2,1-b]-1,3,4-thiadiazole-2-sulfonamide]: the results for the pIC50 in assay [1] and in assay [2] (setting [3]) were 6.22 and 5.15, respectively. With `NS(=O)(=O)c1nn2cc(-c3ccc(F)cc3)nc2s1` [Compound 4, 6-(4-Fluorophenyl)imidazo[2,1-b]-1,3,4-thiadiazole-2-sulfonamide], the pIC50 in assay [1] is 6.66; in assay [2] (setting [3]), 5.30. As to `NS(=O)(=O)c1nn2cc(-c3ccc(OCC(=O)O)cc3)nc2s1` [Compound 102], in assay [2] (setting [3]), the pIC50 was below 4.52.

Consider `CC(=O)Nc1ccc(S(=O)(=O)Nc2nnc(S(N)(=O)=O)s2)cc1` [N-acetylaminobenzolamide, reference compound], for which, in assay [2], the “inhibition of Taxol™ induced killing of SCGs” value is reported as “failed to significantly inhibit”. Regarding `CN(C)S(=O)(=O)c1nn2cc(-c3c(F)c(F)c(F)c(F)c3F)nc2s1` [Compound 140, 6-(2,3,4,5,6-pentafluorophenyl)imidazo[2,1-b]-1,3,4-thiadiazole-2-N,N-dimethylsulfonamide], the pIC50 in assay [2] (setting [3]) was 5.30. Take `NS(=O)(=O)c1nn2cc(-c3cccs3)nc2s1` [Compound 112, 6-(2-Thiophenyl)-imidazo[2,1-b]-1,3,4-thiadiazole-2-sulfonamide]: the pIC50 in assay [2] (setting [3]) is 5.30. `Nc1ccc(-c2cn3nc(S(N)(=O)=O)sc3n2)cc1` [Compound 70, 6-(4-Aminophenyl)imidazo[2,1-b]-1,3,4-thiadiazole-2-sulfonamide]: the pIC50 in assay [2] (setting [3]) is 4.66.

Turning to `NS(=O)(=O)c1nn2c(Br)c(-c3ccc4ccccc4c3)nc2s1` [Compound 130, 5-Bromo-6-(2-naphthyl)imidazo[2,1-b]-1,3,4-thiadiazole-2-sulfonamide hydrobromide], the pIC50 in assay [2] (setting [3]) was 5.70.

Take `Cc1c(-c2ccccc2)nc2sc(S(N)(=O)=O)nn12` [Compound 65, 5-Methyl-6-phenyl-imidazo[2,1-b]-1,3,4-thiadiazole-2-sulfonamide]: in assay [2] (setting [3]), the pIC50 is 4.82. With `NS(=O)(=O)c1nn2cc(-c3cc4ccc5cccc6ccc(c3)c4c56)nc2s1` [Compound 64, 6-pyrenylimidazo[2,1-b]-1,3,4-thiadiazole-2-sulfonamide], the pIC50 in assay [2] (48 h) was 5.00.

`CCN(CC)S(=O)(=O)c1ccc(-c2cn3nc(S(N)(=O)=O)sc3n2)cc1` [Compound 45]: in assay [1], the pIC50 was 6.78. In the case of `Cc1ccc(-c2nc3sc(S(N)(=O)=O)nn3c2C)cc1Cl` [Compound 104, 6-(3-chloro-4-methylphenyl)-5-methylimidazo[2,1-b]-1,3,4-thiadiazole-2-sulfonamide], the pIC50 in assay [2] (setting [3]) is 5.15. As for `NS(=O)(=O)c1nn2cc(-c3ccc(OCCCOCc4ccccc4)cc3)nc2s1` [Compound 32], in assay [2] (setting [3]), the pIC50 is 5.00. As to `NS(=O)(=O)c1nn2cc(-c3ccc4ccccc4c3)nc2s1` [Compound 62, 6-(2-Naphthyl)imidazo[2,1-b]-1,3,4-thiadiazole-2-sulfonamide], in assay [2] (setting [3]), the pIC50 was 4.82. `CS(=O)(=O)c1ccc(-c2cn3nc(S(N)(=O)=O)sc3n2)cc1` [Compound 43, 6-(4-(methylsulfonyl)phenyl)imidazo[2,1-b]-1,3,4-thiadiazole-2-sulfonamide]: in assay [1], the pIC50 is 6.05. On to `NS(=O)(=O)c1nn2cc(C(F)(F)F)nc2s1` [Compound 59], for which the pIC50 in assay [2] (setting [3]) is 5.00. Regarding `NS(=O)(=O)c1nn2cc(-c3ccc([N+](=O)[O-])cc3)nc2s1` [Compound 153, 6-(4-Nitrophenyl)imidazo[2,1-b]-1,3,4-thiadiazole-2-sulfonamide], in assay [2] (setting [3]), the pIC50 was 5.30. On the same count and under the same terms, as for `NS(=O)(=O)c1nn2c(-c3ccccc3)c(-c3ccccc3)nc2s1` [Compound 66, 5,6-Diphenyl-imidazo[2,1-b]-1,3,4-thiadiazole-2-sulfonamide], the figure is 4.70; as for `NS(=O)(=O)c1nn2c(Br)c(-c3ccc(-c4ccccc4)cc3)nc2s1` [Compound 132, 5-Bromo-6-(biphenyl)imidazo[2,1-b]-1,3,4-thiadiazole-2-sulfonamide hydrobromide], 6.00.

As to `COc1cccc(-c2nc3sc(S(N)(=O)=O)nn3c2Br)c1Br` [Compound 129, 5-Bromo-6-(2-bromo3-methoxyphenyl)imidazo[2,1-b]-1,3,4-thiadiazole-2-sulfonamide hydrobromide], in assay [2] (setting [3]), the pIC50 was 5.15. For the molecule `CN(C)S(=O)(=O)c1nn2cc(-c3cccc(OC(=O)c4ccccc4)c3)nc2s1` [Compound 146, 6-(3-Benzoyloxyphenyl)imidazo[2,1-b]-1,3,4-thiadiazole-2-N,N-dimethylsulfonamide], in assay [2] (setting [3]), the pIC50 was 4.70.

For the molecule `NS(=O)(=O)c1nn2cc(-c3ccc(-c4c(F)c(F)c(F)c(F)c4F)cc3)nc2s1` [Compound 73, 6-(4-(2,3,4,5,6-tetrafluorophenyl)phenyl)imidazo[2,1-b]-1,3,4-thiadiazole-2-sulfonamide], the pIC50 in assay [2] (setting [3]) was 5.70. On to `CC(=O)/N=c1/sc(S(N)(=O)=O)nn1C` [methazolamide, reference compound], for which the “inhibition of Taxol™ induced killing of SCGs” value in assay [2] is given as “failed to significantly inhibit”. For the molecule `COC(=O)COc1ccc(-c2nc3sc(S(N)(=O)=O)nn3c2C)cc1` [Compound 103], in assay [2] (setting [3]), the pIC50 was below 4.52.

Turning to `Cc1c(-c2cn3nc(S(N)(=O)=O)sc3n2)sc2ccccc12` [Compound 115, 6-(3-Methylbenzo[b]thiophen-2-yl)imidazo[2,1-b]-1,3,4-thiadiazole-2-sulfonamide], the pIC50 in assay [2] (setting [3]) is 5.15. Regarding `CN(C)S(=O)(=O)c1nn2cc(-c3cccc(O)c3)nc2s1` [Compound 145], the pIC50 in assay [2] (setting [3]) was 4.70.
